# Several values for one entry are separate records, joined by “and”; a condition that tells them apart may be missing. Identical values can stand only once. Like-named read-outs stand apart in the source and are kept apart here.
# Biological target: telomerase (Homo sapiens, UniProt O14746)
# Test: Telomerase repeat processivity IC50: modified dNTP titrated into reactions with all four natural dNTPs
# Type: biochemical
# Design: made in house; anti-FLAG immunopurification, eluted with 3xFLAG peptide
# Conditions: for YIntercept (line fit of ln(100-%LB) vs # telomere repeats) / ln(100-%LB): n1-n3
# From the text: In order to better understand the ability of modified dNTPs to compete with natural dNTPs for telomerase utilization, we added modified dNTPs to reactions containing all four natural dNTPs. […] The calculated IC50 determines the concentration required to reduce repeat processivity in the bulk reactions by half. However, it is important to note that bulk experiments cannot distinguish effects on individual telomeres, since extended telomeres mask unextended telomeres. Incorporation of a chain terminator during any step will terminate extension of the affected telomere, and just five critically short telomeres are sufficient to trigger senescence. Therefore, repeat processivity IC50 values are not necessarily an indicator of the inhibitory potency, but provide information on selectivity for modified dNTPs compared to natural dNTPs. […] The ability to purify sufficient quantities of tcTERT enables characterization of the catalytic nucleotide addition by pre-steady-state single turnover kinetics using a defined DNA–RNA primer–template substrate. The catalytic efficiency of incorporating a single dNTP is measured by dividing the observed nucleotide incorporation rate constant, kpol, by the equilibrium dissociation constant for dNTP binding to the tcTERT–primer–template complex (Kd)[44].
# The reactions were started by the addition of 3 μl of immunopurified telomerase eluent, incubated at 37 °C for 1 h, then terminated with 2 μl of […] and heat inactivated at 65 °C for 20 min. An equal volume of loading buffer (94% formamide, 0.1× TBE, 0.1% bromophenol blue, 0.1% xylene cyanol) was added to the reaction eluent. The samples were heat denatured for 10 min at 100 °C and loaded onto a 14% denaturing acrylamide gel (7 M urea, 1× TBE) and electrophoresed for 90 min at constant 38 W. Samples were imaged using a Typhoon phosphorimager (GE Healthcare). Percent primer extension was calculated with ImageQuant TL 8.2 by measuring the intensity of each product band and dividing by the total radioactivity in the lane or total products, as indicated in the figure legends.
# The processivity was calculated as described[40],[67]. Repeat processivity from the direct telomerase extension assays was calculated as R1/2 (equivalent to the half-time for decay in an exponential time course), which represents the median length of DNA product formed, expressed in terms of number of telomere repeats. First, the total volume counts for each product band extend by one or more telomere repeats were obtained using Image Quant TL. The volume counts were then normalized by dividing by the number of radiolabeled guanosines incorporated into the extended products based on the number of repeats added, termed corrected volume (corr vol). The “percent left behind” (%LB) was calculated for each product band by summing the counts for that product band and for every product band below (shorter products), divided by the total counts for the lane, and then multiplied by 100. The natural log of (100−%LB) was calculated and then plotted vs. repeat number for each product length. A linear regression line was fit to the data to determine the slope of the line. The R1/2 value was calculated by dividing −ln(2) by the slope of each fitted line (R1/2 = −ln(2)/slope).
# Supplementary Fig 8. IC50 values for telomerase processivity inhibition. Telomerase reactions were conducted with cellular relevant concentrations of all four natural dNTPs and increasing concentrations of the modified dNTP analog from 0 to 10,000 μM to calculate. (a) The natural log of (100-%LB) was plotted vs repeat number. A straight line was fit to the data and the R1/2 value was calculated by dividing –ln(2) by the slope of each line. Plots shown from one experiment are […]
# [1] = cellular relevant natural dNTPs, modified dNTP titrated 0 to 10,000 μM, based on repeat processivity, mean ± SD, read-out: Telomerase processivity IC50
# [2] = fit of R 1/2 vs log(concentration), 8-oxo-dGTP, replicates N1-N4
# [3] = log of processivity IC50 (concentration in μM), Supplementary Fig 8b, read-out: Log IC50 (converted)
# [4] = dose-response fit of processivity R 1/2, individual replicates
# [5] = dose-response fit of processivity R 1/2 vs log(concentration), individual replicates
# telomerase, sequence (O14746 whole entry): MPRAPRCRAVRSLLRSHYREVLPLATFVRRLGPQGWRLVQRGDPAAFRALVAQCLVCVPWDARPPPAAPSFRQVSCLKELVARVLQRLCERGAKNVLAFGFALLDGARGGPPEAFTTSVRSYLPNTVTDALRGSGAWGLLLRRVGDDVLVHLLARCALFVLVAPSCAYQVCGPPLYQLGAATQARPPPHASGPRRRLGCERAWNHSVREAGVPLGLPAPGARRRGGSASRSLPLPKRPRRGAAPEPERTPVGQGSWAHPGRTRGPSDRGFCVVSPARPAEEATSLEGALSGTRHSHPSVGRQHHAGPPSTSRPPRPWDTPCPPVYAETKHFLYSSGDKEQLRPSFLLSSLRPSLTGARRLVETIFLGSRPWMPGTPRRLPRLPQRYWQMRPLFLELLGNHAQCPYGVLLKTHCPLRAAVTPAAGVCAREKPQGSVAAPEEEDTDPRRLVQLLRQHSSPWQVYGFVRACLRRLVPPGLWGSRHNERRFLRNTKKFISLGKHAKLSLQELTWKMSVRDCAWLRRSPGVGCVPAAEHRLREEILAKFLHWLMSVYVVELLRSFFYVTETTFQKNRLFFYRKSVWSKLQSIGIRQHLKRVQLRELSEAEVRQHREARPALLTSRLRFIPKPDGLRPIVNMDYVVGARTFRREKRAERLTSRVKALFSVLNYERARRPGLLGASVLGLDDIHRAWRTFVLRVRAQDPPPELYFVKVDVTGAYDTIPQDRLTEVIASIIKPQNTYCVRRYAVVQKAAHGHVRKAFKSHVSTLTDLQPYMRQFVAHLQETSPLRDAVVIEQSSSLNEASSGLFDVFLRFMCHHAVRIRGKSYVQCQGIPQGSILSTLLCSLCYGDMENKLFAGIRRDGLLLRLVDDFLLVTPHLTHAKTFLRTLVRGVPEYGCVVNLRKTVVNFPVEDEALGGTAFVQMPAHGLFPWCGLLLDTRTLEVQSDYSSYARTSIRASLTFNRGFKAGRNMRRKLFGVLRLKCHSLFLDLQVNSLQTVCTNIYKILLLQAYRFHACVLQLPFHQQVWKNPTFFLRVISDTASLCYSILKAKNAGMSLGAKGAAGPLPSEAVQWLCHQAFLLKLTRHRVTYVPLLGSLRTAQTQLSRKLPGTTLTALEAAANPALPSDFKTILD
structure (smiles),measurement,setting,value
Nc1nc2c([nH]c(=O)n2C2CC(O)C(COP(=O)(O)OP(=O)(O)OP(=O)(O)O)O2)c(=O)[nH]1 (centres unmarked) [8-oxo-dGTP],Processivity R 1/2,"8-oxo-dGTP 156.25 μM, replicates n1-n4",3.18 and 2.53 and 3.23
same,YIntercept (line fit of ln(100-%LB) vs # telomere repeats),8-oxo-dGTP 160μM,3.28 and 3.52 and 3.30
same,ln(100-%LB),"8-oxo-dGTP 160μM, telomere repeat 1",3.67 and 3.81 and 3.65
same,ln(100-%LB),"8-oxo-dGTP 160μM, telomere repeat 2",3.11 and 3.28 and 3.14
same,ln(100-%LB),"8-oxo-dGTP 160μM, telomere repeat 3",2.62 and 2.68 and 2.65
same,ln(100-%LB),"8-oxo-dGTP 160μM, telomere repeat 4",2.38 and 2.37 and 2.44
same,ln(100-%LB),"8-oxo-dGTP 160μM, telomere repeat 5",2.10 and 2.03 and 2.19
same,ln(100-%LB),"8-oxo-dGTP 160μM, telomere repeat 6",1.76 and 1.70 and 1.93
same,ln(100-%LB),"8-oxo-dGTP 160μM, telomere repeat 7",1.44 and 1.37 and 1.64
same,ln(100-%LB),"8-oxo-dGTP 160μM, telomere repeat 8",1.22 and 1.14 and 1.43
same,ln(100-%LB),"8-oxo-dGTP 160μM, telomere repeat 9",0.99 and 0.88 and 1.23
same,ln(100-%LB),"8-oxo-dGTP 160μM, telomere repeat 10",0.74 and 0.58 and 1.00
same,YIntercept (line fit of ln(100-%LB) vs # telomere repeats),8-oxo-dGTP 625μM,3.24 and 3.54 and 3.75
same,Processivity R 1/2,"8-oxo-dGTP 625 μM, replicates n1-n4",2.67 and 2.52 and 3.04
same,ln(100-%LB),"8-oxo-dGTP 625μM, telomere repeat 1",3.67 and 3.79 and 3.89
same,ln(100-%LB),"8-oxo-dGTP 625μM, telomere repeat 2",3.11 and 3.31 and 3.40
same,ln(100-%LB),"8-oxo-dGTP 625μM, telomere repeat 3",2.62 and 2.84 and 2.91
same,ln(100-%LB),"8-oxo-dGTP 625μM, telomere repeat 4",2.38 and 2.60 and 2.62
same,ln(100-%LB),"8-oxo-dGTP 625μM, telomere repeat 5",2.10 and 2.36 and 2.34
same,ln(100-%LB),"8-oxo-dGTP 625μM, telomere repeat 6",1.76 and 2.09 and 2.01
same,ln(100-%LB),"8-oxo-dGTP 625μM, telomere repeat 7",1.44 and 1.77 and 1.66
same,ln(100-%LB),"8-oxo-dGTP 625μM, telomere repeat 8",1.22 and 1.56 and 1.41
same,ln(100-%LB),"8-oxo-dGTP 625μM, telomere repeat 9",0.99 and 1.31 and 1.14
same,ln(100-%LB),"8-oxo-dGTP 625μM, telomere repeat 10",0.74 and 1.05 and 0.85
same,ln(100-%LB),"8-oxo-dGTP 625μM, telomere repeat 11",0.51 and 0.79 and 0.55
same,ln(100-%LB),"8-oxo-dGTP 625μM, telomere repeat 12",0.32 and 0.58 and 0.29
same,YIntercept (line fit of ln(100-%LB) vs # telomere repeats),8-oxo-dGTP 2500μM,4.49 and 4.30 and 4.68
same,Processivity R 1/2,"8-oxo-dGTP 2500 μM, replicates n1-n4",0.72 and 0.43 (2×) and 0.55
same,ln(100-%LB),"8-oxo-dGTP 2500μM, telomere repeat 1",3.44 and 3.70 and 3.07
same,Processivity R 1/2,"8-oxo-dGTP 5000 μM, replicates n1-n4",0
same,Processivity R 1/2,"8-oxo-dGTP 10000 μM, replicates n1-n4",0
same,IC50,[1],1690 ± 172 µM
same,LogIC50,"fit of R 1/2 vs log(concentration μM), 8-oxo-dGTP, replicates N1-N4",3.24 and 3.27 and 3.16 and 3.23
same,Bottom (best-fit value),[2],0.33 and -0.00509 and -0.0042 and -0.0316
same,HillSlope,[2],-4.72 and -6.07 and -3.06 and -3.86
same,Span (best-fit value),[2],2.87 and 3.02 and 2.71 and 3.30
same,Top (best-fit value),[2],3.21 and 3.01 and 2.70 and 3.27
same,IC50,[3],2000 µM
same,IC50,"repeat processivity R 1/2, 8-oxo-dGTP, single replicates N1-N4, read-out: IC50",1740 µM and 1870 µM and 1460 µM and 1690 µM
Cc1cn([C@H]2C[C@H](N=[N+]=[N-])[C@@H](CO[P@](=O)(O)O[P@](=O)(O)OP(=O)(O)O)O2)c(=O)[nH]c1=O [AZT-TP],IC50,[1],402 ± 169 µM
same,Best-fit values HillSlope,[4],-0.83 and -0.51
same,Best-fit values Span,[4],2.37 and 4.19
same,Best-fit values LogIC50,"dose-response fit of processivity R 1/2, log of concentration in μM, individual replicates",2.72 and 2.45
same,Best-fit values Bottom,[5],-0.33 and -0.59
same,Best-fit values Top,[5],2.04 and 3.59
same,IC50,[3],501 µM
same,Processivity R 1/2,"modified dNTP concentration 31.25 μM, individual replicates n1-n3",1.70 and 1.35
same,Processivity R 1/2,"modified dNTP concentration 500 μM, individual replicates",0.80 and 0.64
same,Processivity R 1/2,"modified dNTP concentration 1000 μM, individual replicates",0.57 and 0.61
same,Processivity R 1/2,"modified dNTP concentration 2000 μM, individual replicates",0.00 and 0.49
same,Processivity R 1/2,"modified dNTP concentration 4000 μM, individual replicates",0.00
same,IC50,"repeat processivity R 1/2, individual replicates N1-N3, read-out: Best-fit values IC50",521 µM and 282 µM
same,IC50,"repeat processivity R 1/2, mean of replicates, read-out: Mean IC50",402 µM

# — publication PMC7576608, “Mechanisms of telomerase inhibition by oxidized and therapeutic dNTPs” (Nature Communications, 2020)
